Laboratory results taken from patent publication US11890266B2 (University of Canberra, priority 2016, dated 2024).

Columns and labels:
[1] = system: form-deprivation myopia (FDM) in chick eyes fitted with a translucent diffuser; experiment: Form-deprivation myopia (FDM) induced by translucent diffuser, five day treatment; axial length and refraction; format: in vivo, White Cockerel chickens; details: Example 15, five days; for effect of intravitreal injection versus topical administration on refraction and axial elongation: daily administration; for axial elongation in comparison with animals fitted with a translucent diffuser only (G2) / myopic shift in refraction in comparison with animals fitted with a translucent diffuser only (G2): ADTN 1 mM, atropine 2 mM, pirenzepine 16 mM
Method: For the drug treatments, the compositions were administered under light isoflurane anesthesia using intravitreal injection or topical administration.
Intravitreal injection was performed as follows: Using a 30 gauge needle attached to a Hamilton syringe, 10 μL (0.01 mL) of the test composition was injected into the vitreous chamber of the eye once daily.
Topical administration was performed as follows: Two drops of 40 μL (two drops of 0.04 mL, or 0.08 mL total) of the test composition was applied to the corneal surface of the eye using an eye drop dispenser. Drops were applied to the chicks twice daily.
To determine changes in the rate of eye growth and the development of myopia, changes in axial length and refraction were assessed. Myopia is associated with excessive elongation of the eye in the axial direction relative to normal growth rates. Such excessive axial elongation leads to a relative myopic change in refraction. Axial length and refraction were measured using A-scan ultrasonography (Biometer AL-100; Tomey Corporation, Nagoya, Japan) and automated infrared photo-retinoscopy respectively. Statistical analysis of changes in both refraction and axial length between groups involved a one-way ANOVA test followed by a Student's T-test with Bonferroni correction. All data are presented as the mean±the […] of the mean (SEM). […]
70 male White Cockerel chickens were randomly assigned to one of 14 treatment groups as defined below (n=5 per group) and were treated for a five day period. G1-G14 represent the labelling system used in FIGS. 11 and 12.
ADTN compositions were prepared by dissolving ADTN in a solution containing 0.1% ascorbic acid in 1×PBS to a final concentration of 1 mM (0.03% w/v), and adjusting the pH to 7. Atropine and pirenzepine compositions were prepared by dissolving atropine (in the form of atropine sulfate salt monohydrate) or pirenzepine (in the form of pirenzepine dihydrochloride) in distilled water to a final concentration of 2 mM (0.14% w/v) and 16 mM (0.7% w/v), respectively, and adjusting the pH to 7.
Administration of test compositions and measurement of ocular parameters was performed in accordance with that described in Example 4.

[2] = system: form-deprivation myopia (FDM) in chick eyes fitted with a translucent diffuser; experiment: Safety and efficacy of topical levodopa in form-deprivation myopia over a four week period; format: in vivo, White Cockerel chickens; details: topical 0.3% w/v (15 mM) levodopa composition of Example 1, twice daily, four weeks
Method: Male White Cockerel chickens were kept under normal laboratory light (500 lux, fluorescent lights) on a 12:12 hour light:dark cycle with lights on at 9:30 am and off at 9:30 pm. In all chicks, left eyes were treated experimentally while right eyes remained untreated to serve as a contralateral control. Chicks were randomly assigned to one of four groups (n=6 for each group) and treated over the four week period under the following experimental conditions: • 1. […] Form-deprivation myopia (FDM): Chicks were fitted with a translucent diffuser over their left eye to induce FDM, receiving no further treatment • 3.
Administration of the test compositions was performed in accordance with that described in Example 4.
To determine changes in the rate of eye growth and the development of myopia, axial length and refraction were measured using A-scan ultrasonography (Biometer AL-100; Tomey Corporation, Nagoya, Japan) and automated infrared photo-retinoscopy, respectively. Ocular measurements (axial length and refraction) were made on day one (prior to the commencement of experimentation) and every seven days for four weeks.
A multivariate analysis of variance (MANOVA) with repeated measures design was used to compare the effect of the different treatment regimens over time.

[3] = daily topical administration, levodopa 0.03% w/v in combinations

## NC1CCc2cc(O)c(O)cc2C1 (stereo not shown) [ADTN, 2-amino-6,7-dihydroxy-1,2,3,4-tetrahydronaphthalene]
[1]
  effect of intravitreal injection versus topical administration on refraction and axial elongation: intravitreal injection having a greater effect than topical administration
[1]; daily intravitreal injection
  axial elongation in comparison with animals fitted with a translucent diffuser only (G2): decreased axial elongation
  myopic shift in refraction in comparison with animals fitted with a translucent diffuser only (G2): significantly inhibited the myopic shift in refraction
[1]; [3]
  axial elongation in comparison with animals fitted with a translucent diffuser only (G2): decreased axial elongation
  myopic shift in refraction in comparison with animals fitted with a translucent diffuser only (G2): significantly inhibited the myopic shift in refraction

## CN1[C@@H]2CC[C@H]1C[C@@H](OC(=O)C(CO)c1ccccc1)C2 (stereo partly shown) [atropine]
[1]
  effect of intravitreal injection versus topical administration on refraction and axial elongation: intravitreal injection having a greater effect than topical administration
[1]; daily intravitreal injection
  axial elongation in comparison with animals fitted with a translucent diffuser only (G2): decreased axial elongation
  myopic shift in refraction in comparison with animals fitted with a translucent diffuser only (G2): significantly inhibited the myopic shift in refraction
[1]; [3]
  axial elongation in comparison with animals fitted with a translucent diffuser only (G2): decreased axial elongation
  myopic shift in refraction in comparison with animals fitted with a translucent diffuser only (G2): significantly inhibited the myopic shift in refraction

## N[C@@H](Cc1ccc(O)c(O)c1)C(=O)O [levodopa]
[2]
  axial elongation in comparison to diffusers in the absence of levodopa treatment: decreased axial elongation

## CN1CCN(CC(=O)N2c3ccccc3C(=O)Nc3cccnc32)CC1 [pirenzepine]
[1]
  effect of intravitreal injection versus topical administration on refraction and axial elongation: greater when intravitreally administered
[1]; daily intravitreal injection
  axial elongation in comparison with animals fitted with a translucent diffuser only (G2): decreased axial elongation
  myopic shift in refraction in comparison with animals fitted with a translucent diffuser only (G2): significantly inhibited myopic shifts in refractive development
[1]; [3]
  axial elongation in comparison with animals fitted with a translucent diffuser only (G2): decreased axial elongation
  myopic shift in refraction in comparison with animals fitted with a translucent diffuser only (G2): significantly inhibited myopic shifts in refractive development
